Experimental data reported in patent US8846330B2, “Methods and kits for the diagnosis of RyR1-related diseases” (The Henry M. Jackson Foundation for the Advancement of …, priority 2008, dated 2014).
pKi: −log10 of the molar value. Entries after “also recorded” stand apart in the source; their conditions may differ.

How the values were obtained:
lymphocyte cells [1] = assay: 4CmC-induced adenosine/inosine in human peripheral blood lymphocytes, HPLC (Example 1); type: cell-based; conditions: 4CmC-stimulated lymphocytes
Protocol: FIG. 2 is a dose-response curve for 4-chloro-m-cresol (4CmC)-induced intracellular adenosine plus inosine in lymphocyte cells from malignant hyperthermia susceptible (MHS, n=11), not-susceptible (MHN, n=9), and normal (n=7) subjects. Lymphocyte cells were treated with 4CmC in the presence of an inhibitor of adenosine deaminase (EHNA, 0.1 mM). After purification, aliquot was analyzed for adenosine and inosine content using HPLC. Adenosine plus inosine values in the absence of 4CmC are plotted against X=0.02 mM to allow logarithmic display of the entire dose response curve. Adenosine plus inosine levels were normalized to reflect per 1 million cells. 4CmC responses at 1, 2, and 5 mM on MHS groups are about 4, 4, and 6 fold higher than the corresponding values in MI-1N or normal groups with values of 6×10^−5, 8×10^−5, and […], respectively. There were no overlaps between the MHS group and the MHN or normal groups.
Lymphocyte cells from MHS (n=11), MHN (n=9) and normal (n=7) subjects were suspended in normal HBSS plus 0.1% BSA and treated with adenosine deaminase inhibitor (EHNA, 0.1 mM). After 10 minutes of incubation at 37° C., cells were treated with HBSS, with and without the RyR1 agonist 4CmC (5 mM) and incubated at 37° C. for an additional 45 minutes. After termination and purification of the samples, aliquots (50 μl) were assayed in duplicate for adenosine and inosine content using HPLC. Concentrations are normalized to per 1 million cells. The sum of the adenosine plus inosine level is about 6-fold higher than corresponding values in normal and MHN cells.
Pilot studies were conducted using blood samples from human subjects in the following groups: Group 1: MHS subjects with positive CHCT and/or having a known MH associated mutation (n=11); Group 2: non-MH susceptible with negative CHCT results (MHN) (n=9), and Group 3: normal subjects who had not undergone CHCT and had no family history of MH (n=7).
Briefly, venous blood samples (20 ml) were drawn from patients using heparinized blood collection tubes. Peripheral blood lymphocyte cells were isolated from whole blood by the Ficoll-Hypaque centrifugation technique. Briefly, diluted anti-coagulated blood is layered over Ficoll-Hypaque and centrifuged. Mononuclear cells consisting of lymphocytes and some monocytes are recovered at the interface. The cells were washed with the Flanks' balanced salt solution (HBSS) buffer, re-suspended in the HBSS buffer, and treated with different concentration of 4CmC at 37° C. in the presence and/or absence of inhibitor of adenosine deaminase erythro-9-(2-hydroxy-3-nonyl)adenine (EHNA) for about 30 minutes. The cells were then purified by adding an equal volume of 6% HClO4 and centrifuged at 6000 rpm for 10 minutes. Aliquots of the supernatant were analyzed for adenosine and inosine content with HPLC using a Waters Separation Module (Model 2695) equipped with Waters Photodiode Array Detector and Empower software.

lymphocyte cells [2] = assay: 4CmC-induced adenosine in human lymphocyte / immortalized B cells (Example 3); type: cell-based
lymphocyte cells [3] = assay: 4CmC-induced adenosine in swine lymphocyte cells, nucleosides assay (Example 4); type: cell-based; conditions: for effect of azumolene on 4CmC-induced adenosine: azumolene up to 1 mM (0-1000 μM)
Protocol: Isolation of lymphocytes from whole blood: Lymphocyte cells were isolated from whole blood by Ficoll-Hypaque density gradient centrifugation technique (see Boyum A., Scand. J. Clip. Lab. 97:77-89 (1968)). Isolated lymphocyte cells were dispensed into 3-volume normal Hanks' balanced salt solution (HBSS) and centrifuged (10 minutes at 1000 RPM). The pellet was re-suspended in HBSS to lyse contaminating erythrocytes and spun. The later step was repeated one more time. To maintain simplicity of the protocol for possible MH diagnostic purposes no further purification was attempted. Lymphocyte cells were then cultured in RPMI-1640 media supplemented with 10% fetal bovine serum, […] penicillin and 2 mM glutamine. Cell cultures were incubated at 37° C. in a humidified chamber with 5% CO2. All experiments were completed within 4 days after isolation of lymphocyte cells from whole blood samples.
Nucleosides Assay Protocol: Briefly, lymphocyte cells (1−2×10^6 cells/test) were suspended in HBSS with or without Ca^2+/Mg^2+ (as indicated for each experiment) plus 0.1% bovine serum albumin (BSA). Experiments were carried out in the presence of the adenosine deaminase inhibitor erythro-9-(2-hydroxy-3-nonyl) adenine-HCl ([…]) to prevent deamination of adenosine to inosine (Lorbar et al., J Mol Cell Cardiol 31: 401-12 (1999)) and incubated at 37° C. for 10 minutes followed by treatment with different 4CmC concentrations (0.05-10 mM). Further incubation at 37° C. for an additional 45 minutes was also carried out. Final volumes of the test tubes were adjusted to 0.2 ml using HBSS buffer. Termination of the cell activity and purification of samples was accomplished by addition of 0.1 ml 12% perchloric acid followed by centrifugation at 5000 RPM for 10 minutes. Aliquots of the supernatant (50 μl) were assayed for adenosine and inosine content using HPLC.
HPLC Conditions: The HPLC system consisted of a Waters Symmetry C18 column (4.6×250 mm) and mobile phase of 94% KH2PO4 (50 mM, pH 4.6) containing 1-heptanesulfonic acid (0.5 mM) and 6% acetonitrile. Under these conditions, retention times for inosine and adenosine were 4 and 7.3 min, respectively. Peak width of inosine and adenosine were 18 and 36 seconds, respectively. Eluting compounds were detected by their absorbance at 254 nm using a Waters photodiode array detector (model 996). Sample adenosine and inosine concentrations were obtained using a calibrated standard curve of concentrations vs. peak area.
Statistics: Sample nucleosides concentrations were normalized to represent per 1 million cells and presented as means±SEM. The t-test was applied to test for differences between agonist-induced nucleosides in lymphocyte cells from MHS and normal swine. A P<0.05 considered to indicate statistical significance.

[4] = tested on: biopsied skeletal muscle strips; assay: caffeine halothane contracture test (CHCT), human muscle strips; conditions: 2 mM caffeine, average of 3 muscle strips
From the text: Currently definitive MH diagnosis is made by means of the invasive, surgery-requiring caffeine halothane contracture test (CHCT) in North America, by a similar in vitro contracture test (IVCT) in Europe and by technically very difficult calcium induced calcium release (CICR) in Japan; all these tests use biopsied leg muscle (Vasitis lateralis). Other countries are using tests essentially similar to one or these tests. CHCT has a sensitivity of 97% (accurately detects MH susceptible individuals) with a specificity of only 78% (yields 22% false positives). However, because of the invasive surgery, the costs of the test, and the limited viability of the biopsied skeletal muscle samples, the CHCT must be completed within 5 hours post biopsy. Therefore, the muscle biopsies must be conducted at a certified MH diagnostic center or in close-by hospitals (currently there are only 6 MH diagnostic centers in North America). Because of these procedural and logistic complexities, it is estimated that only about 10% of all individuals eligible to undergo the CHCT test are actually tested (estimated from referrals to the North American Malignant Hyperthermia Hotline).

[5] = tested on: skeletal muscle strips (Vastus lateralis); assay: caffeine halothane contracture test (CHCT), swine muscle strips
[6] = muscle strips from normal swine

CCCCCC[C@@H]([C@@H](C)O)n1cnc2c(N)ncnc21 (racemic) [EHNA, erythro-9(2-hydroxy-3-nonyl)adenine]
EHNA concentration at which inosine formation decreased, matched by equimolar increase in adenosine (lymphocyte cells [1]): ≥ 10 µM
inhibition of ADO deaminase by EHNA (lymphocyte cells [2]; immortalized B cells from a CHCT positive (MHS) subject, 4CmC 2 mM, FIG. 4): effectively inhibited
EHNA concentration at which inosine formation decreased and ADO increased to plateau level (lymphocyte cells [3]; swine lymphocytes (n=3)): ≥ 20 µM

Cn1c(=O)c2c(ncn2C)n(C)c1=O [Caffeine, caffeine]
CHCT Results Contractures (g) 2 mM Caf ([4]; Table 1, CHCT-negative subjects): 0 g
CHCT Results Contractures (g) 2 mM Caf ([4]; Table 2, MHN subjects): 0 g
Caffeine (2 mM)-induced contractures, range ([5]; muscle strips from MHS swine): 4.7-17.1 mN
Caffeine (2 mM)-induced contractures, mean [5, 6]: 0.4 mN
Caffeine (2 mM)-induced contractures, range [5, 6]: 0-1 mN

N#CC(C#N)=NNc1ccc(OC(F)(F)F)cc1 [FCCP, Carbonyl cyanide 4-(trifluoromethoxy) phenylhydrazone]
ADO level reached with FCCP alone (lymphocyte cells [3]; FCCP 2 and 20 μM, FIG. 14A): 0.1 to 0.12 µM
effect of FCCP on basal adenosine levels (lymphocyte cells [3]; FCCP 2 and 20 μM, FIG. 14A): significantly increased
increase of basal ADO levels by FCCP alone (lymphocyte cells [3]; FCCP 2 and 20 μM, normal swine, Ca2+/Mg2+ free HBSS): 4.5 fold
effect of FCCP on 4CmC-induced ADO formation (lymphocyte cells [3]; both tested FCCP concentrations, 1 mM 4CmC during FCCP treatment (FIG. 14B)): prevented the maximum increase in ADO formation
effectiveness of FCCP in inducing ADO formation relative to 4CmC (lymphocyte cells [3]; normal swine lymphocytes): 25%

FC(F)(F)C(Cl)Br (centres unmarked) [Halothane, halothane]
Halothane (3%)-induced contractures, mean ([5]; muscle strips from MHS swine): 19.2±3.1 mN
Halothane (3%)-induced contractures, range ([5]; muscle strips from MHS swine): 11.2-33.1 mN
Halothane (3%)-induced contractures, mean [5, 6]: 1.2±1.0 mN
Halothane (3%)-induced contractures, range [5, 6]: 0-1.8 mN

C1CCC[C@H]2CCCN3CC[C@@H](CCCCCC[C@@H]4CCCN5CC[C@@H](CC1)O[C@@H]45)O[C@@H]23 [XeC, Xestospongin C]
effect of XeC alone on basal ADO levels (lymphocyte cells [2]; XeC 1 and 10 μM): did not produce any change
effect of XeC on response of B cells to 4CmC (lymphocyte cells [2]; immortalized B cells (MHS, n=3), Ca2+ free HBSS, 2 mM 4CmC): did not affect
effect of XeC on 4CmC-induced ADO (lymphocyte cells [3]; 1 μM XeC, 2 mM 4CmC, normal swine): did also not affect
decrease of 4CmC-induced ADO by XeC (lymphocyte cells [3]; 10 μM XeC, 2 mM 4CmC, normal swine (n=5)): 27%
effect of XeC alone on basal ADO levels (lymphocyte cells [3]; XeC 1 and 10 μM, Ca2+/Mg2+-free HBSS): did not affect
effect of XeC on 4CmC (2 mM)-induced adenosine (lymphocyte cells [3]; XeC as printed in figure legend, normal swine): Significantly (P=0.002) Reduced

O=C1CN(/N=C/c2ncc(-c3ccc(Br)cc3)o2)C(=O)N1 [azumolene]
effect of azumolene on 4CmC-induced adenosine (lymphocyte cells [3]; 1 mM 4CmC, normal swine (n=5), Ca2+/Mg2+-free HBSS): only marginally inhibited
effect of azumolene on 4CmC-induced adenosine (lymphocyte cells [3]; 1 mM 4CmC, normal swine (n=5), Ca2+/Mg2+-free HBSS, listed as Azumolene): did not significantly decrease; also recorded: did not significantly affect
pKi (lymphocyte cells [3]; non-linear curve fitting, 1 mM 4CmC, read-out: apparent Ki value of azumolene for inhibition of 4CmC-induced ADO formation): ~2.30
